Target: T1, YES1 (Homo sapiens, UniProt P07947)
T1 construct: purchased Thermo Fisher Scientific (Life Technologies) SelectScreen
Test: SelectScreen Z'LYTE
Type: biochemical
How it was run: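 Percent values come from Thermo SelectScreen profiling of NU5455, combining activity and binding assays. CSF1R was run in Z'LYTE format at Km app ATP, and CAMK1 in Adapta format with ATP listed at 10.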

T1 sequence (P07947 whole entry): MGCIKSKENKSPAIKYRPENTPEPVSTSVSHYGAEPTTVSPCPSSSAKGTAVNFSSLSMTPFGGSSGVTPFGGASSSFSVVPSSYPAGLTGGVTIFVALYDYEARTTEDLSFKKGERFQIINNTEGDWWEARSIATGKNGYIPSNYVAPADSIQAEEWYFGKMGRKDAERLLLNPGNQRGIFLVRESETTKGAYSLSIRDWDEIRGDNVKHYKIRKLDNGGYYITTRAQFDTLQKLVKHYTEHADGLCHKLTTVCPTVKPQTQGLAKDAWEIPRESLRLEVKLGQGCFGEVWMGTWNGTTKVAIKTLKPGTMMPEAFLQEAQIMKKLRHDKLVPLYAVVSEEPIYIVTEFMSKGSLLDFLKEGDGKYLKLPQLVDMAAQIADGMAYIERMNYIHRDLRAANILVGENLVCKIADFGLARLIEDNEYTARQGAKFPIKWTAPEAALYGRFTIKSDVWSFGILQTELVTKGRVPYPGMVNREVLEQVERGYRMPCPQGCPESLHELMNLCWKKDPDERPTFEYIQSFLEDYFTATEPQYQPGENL

CN(C(=O)CN1CCOCC1)c1ccc2sc3c(-c4cccc5c(=O)cc(N6CC7CCC(C6)O7)oc45)cccc3c2c1 [NU5455]
inhibition at 1 µM: 7.4%

Reference: PMC6934184, “Selective DNA-PKcs inhibition extends the therapeutic index of localized radiotherapy and chemotherapy” (The Journal of Clinical Investigation, 2019)
